Source: the supplement of paper PMC10307832

What was measured:
Experiment in all cases: relative viability (nuclei count vs DMSO), 5 days (fraction); higher = more cells survive
[1] = compound: CC1=CC(=C(N1C2=CC=C(C=C2)Cl)C)C(=O)CN3CCCCC3 [IU1-47] + O=C(CCCCCCC(=O)Nc1ccccc1)NO [Vorinostat] (partner 1 µM)
Summary of the method: (§1)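 Medians of duplicate plates are given as relative viability. That measure is the nuclei count in treated wells divided by the count in vehicle wells. Counts were taken on 4× images of lung cancer cell lines in 1536-well plates, 5 days after pin-tool dosing the day after seeding with one drug alone or a fixed anchor-drug dose plus five library-drug doses (not always all listed) in √10 steps.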

[2] = compound: CC1=CC(=C(N1C2=CC=C(C=C2)Cl)C)C(=O)CN3CCCCC3 [IU1-47] + N=C(N)NC(=N)NCCc1ccccc1 [Phenformin] (partner 250 µM)
Summary of the method: as §1

[3] = compound: Cc1nc(C(=O)NCC(=O)O)c(O)c2ccc(Oc3ccccc3)cc12 [FG-4592] + O=C(CCCCCCC(=O)Nc1ccccc1)NO [Vorinostat] (partner 1 µM)
Summary of the method: as §1

[4] = compound: Cc1nc(C(=O)NCC(=O)O)c(O)c2ccc(Oc3ccccc3)cc12 [FG-4592] + CS(=O)(=O)CCNCc1ccc(-c2ccc3ncnc(Nc4ccc(OCc5cccc(F)c5)c(Cl)c4)c3c2)o1 [Lapatinib] (partner 2 µM)
Summary of the method: as §1

Cell Line	relative viability ([1]; first compound 0.08 µM)	relative viability ([1]; first compound 0.253 µM)	relative viability ([1]; first compound 0.8 µM)	relative viability ([1]; first compound 2.53 µM)	relative viability ([1]; first compound 8 µM)	relative viability ([2]; first compound 0.08 µM)	relative viability ([2]; first compound 0.253 µM)	relative viability ([2]; first compound 0.8 µM)	relative viability ([2]; first compound 2.53 µM)	relative viability ([2]; first compound 8 µM)	relative viability ([3]; first compound 0.08 µM)	relative viability ([3]; first compound 0.253 µM)	relative viability ([3]; first compound 0.8 µM)	relative viability ([3]; first compound 2.53 µM)	relative viability ([3]; first compound 8 µM)	relative viability ([4]; first compound 0.08 µM)	relative viability ([4]; first compound 0.253 µM)	relative viability ([4]; first compound 0.8 µM)	relative viability ([4]; first compound 2.53 µM)	relative viability ([4]; first compound 8 µM)
NCI-H2023	0.699	0.767	0.668	0.497	0.748	0.459	0.387	0.411	0.472	0.378	0.631	0.514	0.572	0.553	0.543	1.03	0.735	0.407	0.468	0.598
COR-L 105	1.02	1.01	0.779	0.745	0.958	0.418	0.438	0.506	0.501	0.454	0.723	0.755	0.843	0.699	0.769	0.348	0.342	0.264	0.382	0.329
RERF-LC-KJ	0.743	0.749	0.749	0.604	0.605	0.415	0.423	0.421	0.493	0.411	0.672	0.629	0.705	0.486	0.701	0.793	0.816	0.86	0.899	0.725
LXF-289	0.699	0.839	0.946	0.751	0.752	0.533	0.563	0.541	0.517	0.439	0.776	0.742	0.857	0.736	0.797	0.93	0.881	0.937	0.946	0.945
PC-14	0.757	0.756	0.734	0.49	0.573	0.686	0.611	0.633	0.664	0.406	0.785	0.738	0.814	0.694	0.615	0.365	0.317	0.345	0.336	0.298
NCI-H650	0.61	0.562	0.451	0.37	0.483	0.489	0.483	0.466	0.491	0.476	0.352	0.574	0.384	0.339	0.365	0.633	1.03	0.744	0.728	0.802
NCI-H1666	0.961	0.984	1.08	1.1	1.03	0.609	0.527	0.539	0.584	0.544	1.02	0.932	0.954	1.08	1.03	0.617	0.519	0.485	0.519	0.456
NCI-H2085	0.853	0.861	0.791	0.626	0.76	0.736	0.711	0.713	0.771	0.675	0.693	0.755	0.65	0.769	0.771	0.633	0.747	0.607	0.723	0.824
NCI-H1734	0.902	0.859	0.778	0.542	0.816	0.441	0.423	0.369		0.376	0.762	0.802	0.616	0.713	0.852	0.947	0.886	0.915	0.973	1.02
NCI-H2126	0.895	0.775	0.801	0.478	0.731	0.535	0.515	0.508		0.529	0.709	0.726	0.594	0.509	0.73	0.672	0.708	0.604	0.613	0.589
EMC-BAC-2	0.456	0.488	0.42	0.442	0.419	0.548	0.569	0.53	0.627	0.409	0.43	0.467		0.561	0.366	0.853	0.866	0.808	0.731	0.842
NCI-H1993	0.635	0.858	0.819	0.835	0.718	0.488	0.493	0.516	0.506	0.498	1.06	0.69		0.642	0.814	0.848	0.885	0.744	0.929	0.719
NCI-H520	0.783	0.671	0.681	0.685	0.589	0.602	0.484	0.59	0.626	0.346	0.693	0.709	0.635	0.702	0.673	0.754	0.758	0.828	0.793	0.721
NCI-H647	0.519	0.587	0.691	0.917	0.726	0.449	0.597		0.553	0.238	0.35	0.366	0.551	0.486	0.237	1.13	1.01	1.23	1.08	1.04
SK-LU-1	0.804	0.818	0.768	0.815	0.585	0.574	0.507	0.487	0.581	0.419	0.862	0.505	0.799	0.845	0.811	0.774	0.717	0.776	0.988	0.88
NCI-H1650	0.631	0.523	0.62	0.564	0.722	0.412	0.367	0.419	0.366	0.326	0.762	0.53	0.502	0.55	0.465	0.637	0.704	0.544	0.677	0.78
NCI-H2009	0.761	0.783	0.72	0.656	0.668	0.519	0.501	0.5	0.486	0.412	0.823	0.694	0.88	0.671	0.727	1.02	0.878	0.888	0.735	0.924
